The structures appear in SMILES notation. In brackets after ≈: the same amount, converted by molar mass. A value given as a limit tells only on which side of the number the result lay.

The term MIC denotes the least concentration at which growth counts as inhibited. Low readings indicate a more susceptible organism, high ones a less susceptible organism. In general, Cmax refers to the peak of the concentration-time curve. By inhibition is commonly meant the share of the control response that was lost under treatment.

Series [1] concerns Trichomonas vaginalis. In words: Antimicrobial activity against Trichomonas vaginalis after 3 to 48 hrs by trypan blue exclusion assay. The class given is functional.
A short description of series [2]: Spermicidal activity against human sperm by microscopic analysis. The class given is functional.
Series [3] in a line: Cmax in rabbit administered administered intravaginally after 1 hr. It counts as ADME, organism-based, Oryctolagus cuniculus. The settings on record: in vivo.
Series [4] can be described thus: Terminal half life in rabbit administered intravaginally after 1 hr. It counts as ADME, organism-based, Oryctolagus cuniculus. The settings on record: in vivo, read-out: beta t1/2 (converted).
For series [5], the target named is Human immunodeficiency virus type 1 reverse transcriptase (Human immunodeficiency virus 1) (UniProt Q72547). Briefly: Inhibition of HIV-1 reverse transcriptase using digoxigenin/biotin-labeled dUTP as substrate at 100 ug/ml incubated for 1 hr followed by compound washout measured after 1 hr by non-radioactive ELISA relative to control.
The species named for series [6] is Homo sapiens. In words: Ratio of nonoxynol-9 MEC to compound MEC for human sperm. The class given is functional.
In series [7] the test system is HeLa. Briefly: Cytotoxicity against human HeLa cells assessed as cell viability at 200 ug/ml after 24 hrs by lactate dehydrogenase release assay. It counts as cell-based.
Series [8] can be described thus: Toxicity against Lactobacillus acidophilus at 200 ug/ml after 24 hrs.
Series [9] in a line: Stability of the compound in simulated vaginal fluid at 100 ng/ml at pH 2 up to 1 hr by LC/MS/MS analysis. The class given is ADME. The conditions noted are these: buffer, pH 2, 1 h.

In series [1], `CCCCCCCCCc1ccc(OCCOCCOCCOCCOCCOCCOCCOCCOCCO)cc1` [NONOXYNOL 9] registered an MIC of 20 mg/L (≈ 32.4 µM). This compound yielded an MEC in [2] of 0.05%. Besides, the concentration in series [3] peaked (Cmax) at 4.87 ng/mL. The half-life in series [4] was 1.45 h.

Consider `CCCCCCCCSC(=S)N1CCN(C(=S)NCCc2ccccc2)CC1`, for which the minimal inhibitory concentration (MIC) in series [1] was 250 mg/L (≈ 571 µM). This compound gave an MEC in [2] above 2%. The inhibition in [5] came to 15.7%.

Turning to `CCCCCCSC(=S)N1CCN(C(=S)Nc2ccccc2)CC1`, in series [1], the MIC is above 500 mg/L. In series [2], this compound yielded an MEC above 2%. Further, in series [5], the inhibition is 1.9%.

In series [1], `S=C(Nc1cccnc1)N1CCN(C(=S)SCc2ccccc2)CC1` registered an MIC above 500 mg/L. Besides, the MEC in series [2] turned out to be 2%. The inhibition in series [5] came to 25.8%.

With `CCCSC(=S)N1CCN(C(=S)NC(=O)c2ccccc2)CC1`, the minimal inhibitory concentration (MIC) in [1] is 62.5 mg/L (≈ 170 µM). Besides, the MEC in series [2] came out at 0.025%. For the same compound, in [5], the inhibition is 31.4%. In series [6], the Ratio is recorded as 2. The Activity result in series [7] and in series [8] was “Non-toxic” throughout.

Take `S=C(NCc1ccccc1)N1CCN(C(=S)SCc2ccccc2)CC1`: the MIC in series [1] stood at 125 mg/L (≈ 311 µM). This compound displayed an MEC in series [2] above 2%. Besides, in [5], the inhibition amounted to 9.11%.

In the case of `CCCCCCSC(=S)N1CCN(C(=S)NCCc2ccccc2)CC1`, the MIC in series [1] was found to be 250 mg/L (≈ 610 µM). In addition, the MEC in [2] is on record as 1%. Further, in [5], the inhibition was 14.8%.

Regarding `CCCCCCSC(=S)N1CCN(C(=S)NCc2ccccc2)CC1`, the MIC in series [1] came to 250 mg/L (≈ 632 µM). The compound also showed an MEC in [2] above 2%. Moreover, in series [5], the inhibition turned out to be 27.3%.

For `CCCSC(=S)N1CCN(C(=S)Nc2cccnc2)CC1`, in series [1], the MIC was 125 mg/L (≈ 367 µM). This compound also had an MEC in [2] of 0.5%. The inhibition in series [5] turned out to be 35.4%.

In the case of `CCCCCCCCSC(=S)N1CCN(C(=S)Nc2cccnc2)CC1`, the minimum inhibitory concentration (MIC) in [1] was found to be 62.5 mg/L (≈ 152 µM). The compound further gave an MEC in [2] of 2%. Further, the inhibition in [5] was 44.7%.

As to `CCCCCCSC(=S)N1CCN(C(=S)NC(=O)c2ccccc2)CC1`, the minimal inhibitory concentration (MIC) in series [1] came to 7.78 mg/L (≈ 19 µM). The MEC in [2] is 0.05%. In addition, the inhibition in series [5] amounted to 23.2%. The Activity result in series [7] and in series [8] was “Non-toxic” throughout.

For `CCCCCCSC(=S)N1CCN(C(=S)Nc2cccnc2)CC1`, in [1], the MIC was 125 mg/L (≈ 327 µM). The same compound yielded an MEC in series [2] of 0.05%. In series [5], the inhibition is 26.1%. Also, the Activity result in series [7] and in series [8] was “Non-toxic” throughout.

As to `CCCCSC(=S)N1CCN(C(=S)NC(=O)c2ccccc2)CC1`, the minimum inhibitory concentration (MIC) in [1] was determined as 125 mg/L (≈ 328 µM). Further, in series [2], the MEC turned out to be 1%. Further, the inhibition in series [5] is 27.8%.

For `S=C(NCCc1ccccc1)N1CCN(C(=S)SCc2ccccc2)CC1`, the minimal inhibitory concentration (MIC) in series [1] was 62.5 mg/L (≈ 150 µM). The same compound came in with an MEC in series [2] above 2%. Besides, in series [5], the inhibition is 11.8%.

As for `CCCCCCCCSC(=S)N1CCN(C(=S)NC(=O)c2ccccc2)CC1`, the lowest concentration to inhibit growth in [1] (MIC) was 15.6 mg/L (≈ 35.5 µM). In series [2], this compound gave an MEC of 0.025%. Besides, the inhibition in [5] was 41.3%. Also, in series [6], the Ratio is 2. Moreover, the Activity entry in series [7] and in series [8] was “Non-toxic” each time. In addition, the Stability entry in [9] is “Stable”.

On to `CCCCSC(=S)N1CCN(C(=S)Nc2ccccc2)CC1`, for which the minimum inhibitory concentration (MIC) in [1] came out at 125 mg/L (≈ 354 µM). The MEC in series [2] is given as above 2%. Also, the inhibition in series [5] is 30.9%.

Compound `CCCCSC(=S)N1CCN(C(=S)Nc2cccnc2)CC1` displayed an MIC in series [1] of 250 mg/L (≈ 705 µM). The compound also came in with an MEC in series [2] above 2%. In addition, in [5], the inhibition worked out at 14.9%.

For `CCCSC(=S)N1CCN(C(=S)NCc2ccccc2)CC1`, the MIC in [1] is 15.6 mg/L (≈ 44 µM). Also, in series [2], the MEC turned out to be 1%. For the same compound, the inhibition in series [5] came to 20.6%.

As for `CCCCSC(=S)N1CCN(C(=S)NCc2ccccc2)CC1`, in [1], it took 500 mg/L (≈ 1360 µM) to inhibit growth (MIC). In series [2], this compound returned an MEC above 2%. Also, in [5], the inhibition came to 14.2%.

For `CCCCCCCCSC(=S)N1CCN(C(=S)Nc2ccccc2)CC1`, the MIC in series [1] was 125 mg/L (≈ 305 µM). Further, the MEC in series [2] is given as 1%. In series [5], the inhibition was determined as 24%.

Compound `CCCCSC(=S)N1CCN(C(=S)NCCc2ccccc2)CC1` registered a minimal inhibitory concentration (MIC) in [1] of 250 mg/L (≈ 655 µM). In series [2], this compound yielded an MEC above 2%. Also, the inhibition in series [5] was 13.5%.

For `CCCSC(=S)N1CCN(C(=S)NCCc2ccccc2)CC1`, it took 250 mg/L (≈ 680 µM) to inhibit growth in [1] (MIC). The MEC in [2] is on record as above 2%. The inhibition in series [5] stood at 28.4%.

With `CCCSC(=S)N1CCN(C(=S)Nc2ccccc2)CC1`, the minimum inhibitory concentration (MIC) in series [1] was 500 mg/L (≈ 1470 µM). For the same compound, the MEC in [2] is above 2%. Further, the inhibition in [5] is 21.5%.

As to `S=C(Nc1ccccc1)N1CCN(C(=S)SCc2ccccc2)CC1`, in series [1], 250 mg/L (≈ 645 µM) was the least that counted as inhibitory (MIC). This compound also registered an MEC in series [2] above 2%. For the same compound, the inhibition in [5] turned out to be 21.9%.

Take `CCCCCCCCSC(=S)N1CCN(C(=S)NCc2ccccc2)CC1`: the MIC in series [1] was found to be 250 mg/L (≈ 590 µM). Further, the MEC in series [2] was determined as 1%. Further, the inhibition in series [5] is 36.5%.

Consider `O=C(NC(=S)N1CCN(C(=S)SCc2ccccc2)CC1)c1ccccc1`, for which, in series [1], it took 62.5 mg/L (≈ 150 µM) to inhibit growth (MIC). The MEC in [2] was found to be 1%. Further, the inhibition in series [5] was 12.3%.

The record behind these values is ChEMBL document CHEMBL3392985, “Dithiocarbamate-thiourea hybrids useful as vaginal microbicides also show reverse transcriptase inhibition: design, synthesis, docking and pharmacokinetic studies” (Bioorg Med Chem Lett, 2015).
